From ChEMBL document CHEMBL2331379, “Synthesis of derivatives of methyl rosmarinate and their inhibitory activities against matrix metalloproteinase-1 (MMP-1)” (Eur J Med Chem, 2013) come the findings set out here.

A value given as a limit tells only on which side of the number the result lay.

The term IC50 denotes the point on the concentration scale where inhibition reaches its midpoint.

Chain of 72 kDa type IV collagenase (P08253 whole entry): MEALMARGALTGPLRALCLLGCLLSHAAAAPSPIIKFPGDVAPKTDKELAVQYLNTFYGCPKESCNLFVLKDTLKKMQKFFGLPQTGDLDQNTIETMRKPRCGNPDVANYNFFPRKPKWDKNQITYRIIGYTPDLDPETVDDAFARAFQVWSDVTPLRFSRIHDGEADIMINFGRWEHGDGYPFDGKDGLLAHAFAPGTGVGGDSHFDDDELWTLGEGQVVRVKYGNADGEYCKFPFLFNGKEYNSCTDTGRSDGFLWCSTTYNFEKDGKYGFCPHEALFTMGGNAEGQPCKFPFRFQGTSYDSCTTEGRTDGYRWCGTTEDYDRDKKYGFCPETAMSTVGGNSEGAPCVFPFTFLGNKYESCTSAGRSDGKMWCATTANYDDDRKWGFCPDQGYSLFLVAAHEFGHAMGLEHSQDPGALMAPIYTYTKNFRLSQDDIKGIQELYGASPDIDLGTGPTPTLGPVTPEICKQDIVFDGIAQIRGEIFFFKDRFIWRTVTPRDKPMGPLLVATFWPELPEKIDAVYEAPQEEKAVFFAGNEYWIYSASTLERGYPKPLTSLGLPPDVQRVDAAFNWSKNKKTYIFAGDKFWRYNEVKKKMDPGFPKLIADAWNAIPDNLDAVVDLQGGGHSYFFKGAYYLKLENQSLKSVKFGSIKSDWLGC
Chain of Stromelysin-1 (P08254 whole entry): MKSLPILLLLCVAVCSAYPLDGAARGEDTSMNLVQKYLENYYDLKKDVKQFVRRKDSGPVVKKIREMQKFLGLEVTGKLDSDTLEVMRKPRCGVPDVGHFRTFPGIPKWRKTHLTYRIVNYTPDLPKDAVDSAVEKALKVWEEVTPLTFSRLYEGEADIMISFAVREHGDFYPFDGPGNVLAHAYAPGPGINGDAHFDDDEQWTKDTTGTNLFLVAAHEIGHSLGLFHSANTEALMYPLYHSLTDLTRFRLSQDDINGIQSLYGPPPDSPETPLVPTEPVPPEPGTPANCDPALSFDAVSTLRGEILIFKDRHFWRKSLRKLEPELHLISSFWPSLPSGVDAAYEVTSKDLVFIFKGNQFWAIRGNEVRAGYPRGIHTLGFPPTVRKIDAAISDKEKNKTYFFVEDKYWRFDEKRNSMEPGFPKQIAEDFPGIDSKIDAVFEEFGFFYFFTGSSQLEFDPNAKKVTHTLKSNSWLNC
Chain of Matrix metalloproteinase-9 (P14780 whole entry): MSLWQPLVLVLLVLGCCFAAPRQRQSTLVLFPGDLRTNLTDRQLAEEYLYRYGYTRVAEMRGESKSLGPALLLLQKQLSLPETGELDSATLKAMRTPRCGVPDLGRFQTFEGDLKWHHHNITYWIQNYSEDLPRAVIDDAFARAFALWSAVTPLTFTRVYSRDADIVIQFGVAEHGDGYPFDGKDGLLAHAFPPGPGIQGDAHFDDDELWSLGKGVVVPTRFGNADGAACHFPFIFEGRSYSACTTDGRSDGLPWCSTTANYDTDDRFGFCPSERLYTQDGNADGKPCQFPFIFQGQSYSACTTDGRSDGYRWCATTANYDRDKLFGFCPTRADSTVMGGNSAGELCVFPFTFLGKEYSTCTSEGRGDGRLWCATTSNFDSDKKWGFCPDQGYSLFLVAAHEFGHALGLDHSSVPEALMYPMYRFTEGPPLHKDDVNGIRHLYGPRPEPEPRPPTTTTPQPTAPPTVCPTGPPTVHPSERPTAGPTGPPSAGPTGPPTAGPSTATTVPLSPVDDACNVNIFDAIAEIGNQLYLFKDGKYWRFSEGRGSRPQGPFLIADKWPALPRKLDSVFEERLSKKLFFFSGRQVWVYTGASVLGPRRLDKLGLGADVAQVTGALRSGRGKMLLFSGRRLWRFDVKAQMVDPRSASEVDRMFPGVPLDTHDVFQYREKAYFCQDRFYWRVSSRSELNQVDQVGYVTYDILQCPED

In the first assay the target is Collagenase 3 (Homo sapiens, UniProt P45452). Description: Inhibition of MMP13 (unknown origin).
Molecule `COc1ccc(C[C@@H](OC(=O)/C=C/c2ccc(OCc3ccccc3)c(OCc3ccccc3)c2)C(=O)O)cc1OC` came in with an IC50 of 4.5 µM.

For `COc1ccc(C[C@H](OC(=O)/C=C/c2ccc(OCc3ccccc3)c(OCc3ccccc3)c2)C(=O)O)cc1OC`, the IC50 amounted to 5.4 µM.

For a further assay, the target named is Macrophage metalloelastase (Homo sapiens, UniProt P39900). Description: Inhibition of MMP12 (unknown origin).
Chain of Macrophage metalloelastase (P39900 whole entry): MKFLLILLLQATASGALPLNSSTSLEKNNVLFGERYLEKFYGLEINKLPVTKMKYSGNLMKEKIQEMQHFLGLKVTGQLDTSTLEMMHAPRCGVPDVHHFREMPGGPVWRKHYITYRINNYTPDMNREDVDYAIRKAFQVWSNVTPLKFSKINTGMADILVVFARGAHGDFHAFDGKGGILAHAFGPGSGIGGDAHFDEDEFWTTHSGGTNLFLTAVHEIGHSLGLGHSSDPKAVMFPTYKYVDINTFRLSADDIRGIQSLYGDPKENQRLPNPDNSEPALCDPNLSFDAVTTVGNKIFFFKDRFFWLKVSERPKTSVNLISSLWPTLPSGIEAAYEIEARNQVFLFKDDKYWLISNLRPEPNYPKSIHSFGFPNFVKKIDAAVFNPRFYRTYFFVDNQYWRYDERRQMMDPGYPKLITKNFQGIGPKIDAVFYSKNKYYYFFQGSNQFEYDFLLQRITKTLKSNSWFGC
As for `COc1ccc(C[C@@H](OC(=O)/C=C/c2ccc(OCc3ccccc3)c(OCc3ccccc3)c2)C(=O)O)cc1OC`, the half-inhibitory concentration (IC50) came to 2.1 µM.

`COc1ccc(C[C@H](OC(=O)/C=C/c2ccc(OCc3ccccc3)c(OCc3ccccc3)c2)C(=O)O)cc1OC` came in with a half-maximal inhibitory concentration (IC50) of 2.3 µM.

A further assay has as its target Stromelysin-1 (Homo sapiens, UniProt P08254). Description: Inhibition of MMP3 (unknown origin).
`COc1ccc(C[C@@H](OC(=O)/C=C/c2ccc(OCc3ccccc3)c(OCc3ccccc3)c2)C(=O)O)cc1OC` came in with an IC50 of 4 µM.

`COc1ccc(C[C@H](OC(=O)/C=C/c2ccc(OCc3ccccc3)c(OCc3ccccc3)c2)C(=O)O)cc1OC` yielded an IC50 of 3.4 µM.

The next assay addresses Matrix metalloproteinase-9 (Homo sapiens, UniProt P14780). Put plainly: Inhibition of MMP9 (unknown origin).
In the case of `COc1ccc(C[C@@H](OC(=O)/C=C/c2ccc(OCc3ccccc3)c(OCc3ccccc3)c2)C(=O)O)cc1OC`, the IC50 was 6.7 µM.

Molecule `COc1ccc(C[C@H](OC(=O)/C=C/c2ccc(OCc3ccccc3)c(OCc3ccccc3)c2)C(=O)O)cc1OC` displayed a concentration for half-maximal inhibition (IC50) of 6 µM.

Another assay addresses 72 kDa type IV collagenase (Homo sapiens, UniProt P08253). Description: Inhibition of MMP2 (unknown origin).
Take `COc1ccc(C[C@@H](OC(=O)/C=C/c2ccc(OCc3ccccc3)c(OCc3ccccc3)c2)C(=O)O)cc1OC`: the IC50 amounted to 3.2 µM.

`COc1ccc(C[C@H](OC(=O)/C=C/c2ccc(OCc3ccccc3)c(OCc3ccccc3)c2)C(=O)O)cc1OC` displayed an IC50 of 3 µM.

For a further assay, the target named is T1, Interstitial collagenase (Homo sapiens, UniProt P03956).
T1 sequence (P03956 whole entry): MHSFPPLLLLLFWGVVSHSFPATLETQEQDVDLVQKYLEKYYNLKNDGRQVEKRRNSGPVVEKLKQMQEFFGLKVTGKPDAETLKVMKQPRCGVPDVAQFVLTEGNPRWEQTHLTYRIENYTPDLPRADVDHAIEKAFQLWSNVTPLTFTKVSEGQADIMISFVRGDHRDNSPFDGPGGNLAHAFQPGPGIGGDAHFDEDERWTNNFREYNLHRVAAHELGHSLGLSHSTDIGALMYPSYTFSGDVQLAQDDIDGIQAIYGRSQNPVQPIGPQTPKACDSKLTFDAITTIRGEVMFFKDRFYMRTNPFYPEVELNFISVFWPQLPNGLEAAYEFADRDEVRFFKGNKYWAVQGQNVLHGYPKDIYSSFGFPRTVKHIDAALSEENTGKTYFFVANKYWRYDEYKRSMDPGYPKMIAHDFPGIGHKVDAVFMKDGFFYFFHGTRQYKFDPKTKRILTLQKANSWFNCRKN
Put plainly: Inhibition of human recombinant MMP1 catalytic domain using Dnp-Pro-beta-cyclohexyl-Ala-Gly-Cys(Me)-His-Lys-(Nma)-NH2 as substrate preincubated with enzyme for 30 mins prior to substrate addition monitored for 60 mins by fluorometric assay.
For the molecule `COc1ccc(CC(OC(=O)/C=C/c2ccc(C(F)(F)F)cc2)C(=O)O)cc1OC` (stereo not given), the IC50 amounted to 38.9 µM.

`COc1ccc(CC(OC(=O)/C=C/c2ccccc2)C(=O)O)cc1OC` (stereo not given): the IC50 stood at 53.7 µM.

As for `COc1ccc(CC(OC(=O)/C=C/c2ccc(C)cc2)C(=O)O)cc1OC` (stereo not given), the IC50 is > 100 µM.

Take `COc1ccc(CC(OC(=O)/C=C/c2ccc(F)cc2)C(=O)O)cc1OC` (stereo not given): the IC50 was 41.7 µM.

As for `COc1ccc(CC(OC(=O)/C=C/c2ccc(Cl)cc2)C(=O)O)cc1OC` (stereo not given), the IC50 is 42.6 µM.

Turning to `COc1ccc(CC(OC(=O)/C=C/c2ccc(Br)cc2)C(=O)O)cc1OC` (stereo not given), the IC50 was found to be 10.7 µM.

For `COc1ccc(CC(OC(=O)/C=C/c2ccccc2F)C(=O)O)cc1OC` (stereo not given), the IC50 stood at 34.7 µM.

Regarding `COc1ccc(CC(OC(=O)/C=C/c2ccc([N+](=O)[O-])cc2)C(=O)O)cc1OC` (stereo not given), the half-maximal inhibitory concentration (IC50) stood at 38.5 µM.

With `COc1ccc(CC(OC(=O)/C=C/c2ccc(-c3ccccc3)cc2)C(=O)O)cc1OC` (stereo not given), the half-inhibitory concentration (IC50) worked out at 8.6 µM.

Consider `COc1ccc(CC(OC(=O)/C=C/c2ccc(OCc3ccccc3)cc2)C(=O)O)cc1OC` (stereo not given), for which the half-inhibitory concentration (IC50) was determined as 8.9 µM.

As to `COc1ccc(/C=C/C(=O)OC(Cc2ccc(OC)c(OC)c2)C(=O)O)cc1` (stereo not given), the half-inhibitory concentration (IC50) is > 100 µM.

With `COc1ccc(CC(OC(=O)/C=C/c2ccc(O)c(O)c2)C(=O)O)cc1OC` (stereo not given), the IC50 was 13.7 µM.

As for `COc1ccc(/C=C/C(=O)OC(Cc2ccc(OC)c(OC)c2)C(=O)O)cc1OC` (stereo not given), the IC50 is > 100 µM.

As for `COc1ccc(CC(OC(=O)/C=C/c2ccc(OCc3ccccc3)c(OCc3ccccc3)c2)C(=O)O)cc1OC` (stereo not given), the half-inhibitory concentration (IC50) turned out to be 2.5 µM.

Regarding `COc1ccc(CC(OC(=O)/C=C/c2ccc3ccccc3c2)C(=O)O)cc1OC` (stereo not given), the IC50 was > 100 µM.

In the case of `COc1ccc(CC(OC(=O)/C=C/c2ccc3c(c2)OCC3)C(=O)O)cc1OC` (stereo not given), the IC50 is > 100 µM.

Take `COc1ccc(CC(OC(=O)/C=C/c2ccc(Br)cc2)C(=O)NO)cc1OC` (stereo not given): the half-inhibitory concentration (IC50) was determined as 7.6 µM.

For `COc1ccc(CC(OC(=O)/C=C/c2ccc(-c3ccccc3)cc2)C(=O)NO)cc1OC` (stereo not given), the half-inhibitory concentration (IC50) was found to be 5.5 µM.

On to `COc1ccc(CC(OC(=O)/C=C/c2ccc(OCc3ccccc3)cc2)C(=O)NO)cc1OC` (stereo not given), for which the IC50 was 3.6 µM.

For the molecule `COc1ccc(CC(OC(=O)/C=C/c2ccc(OCc3ccccc3)c(OCc3ccccc3)c2)C(=O)NO)cc1OC` (stereo not given), the IC50 was determined as 4.2 µM.

For the molecule `COc1ccc(CC(OC(=O)/C=C/c2ccc3ccccc3c2)C(=O)NO)cc1OC` (stereo not given), the IC50 was found to be 6.8 µM.

Consider `COc1ccc(CC(OC(=O)/C=C/c2ccc3c(c2)OCC3)C(=O)NO)cc1OC` (stereo not given), for which the IC50 stood at 10.6 µM.

For `C=CCOC(=O)C(Cc1ccc(OC)c(OC)c1)OC(=O)/C=C/c1ccc(C(F)(F)F)cc1` (stereo not given), the half-maximal inhibitory concentration (IC50) was > 100 µM.

On to `C=CCOC(=O)C(Cc1ccc(OC)c(OC)c1)OC(=O)/C=C/c1ccc(Cl)cc1` (stereo not given), for which the IC50 was > 100 µM.

For `C=CCOC(=O)C(Cc1ccc(OC)c(OC)c1)OC(=O)/C=C/c1ccc(Br)cc1` (stereo not given), the IC50 is > 100 µM.

As to `C=CCOC(=O)C(Cc1ccc(OC)c(OC)c1)OC(=O)/C=C/c1ccc([N+](=O)[O-])cc1` (stereo not given), the IC50 was > 100 µM.

As to `C=CCOC(=O)C(Cc1ccc(OC)c(OC)c1)OC(=O)/C=C/c1ccc(OCc2ccccc2)cc1` (stereo not given), the 50% inhibitory concentration (IC50) is > 100 µM.

With `COc1ccc(C[C@@H](OC(=O)/C=C/c2ccc(OCc3ccccc3)c(OCc3ccccc3)c2)C(=O)O)cc1OC`, the half-inhibitory concentration (IC50) stood at 0.4 µM.

As to `COc1ccc(C[C@H](OC(=O)/C=C/c2ccc(OCc3ccccc3)c(OCc3ccccc3)c2)C(=O)O)cc1OC`, the 50% inhibitory concentration (IC50) was 0.8 µM.

For `O=C(/C=C/c1ccc(O)c(O)c1)O[C@H](Cc1ccc(O)c(O)c1)C(=O)O` [ROSMARINIC ACID], the IC50 stood at 5.6 µM.
